Patent publication US10952999B2, “Inhibitor of cyclin-dependent kinase CDK9” (GENFLEET THERAPEUTICS (SHANGHAI) INC., priority 2017, dated 2021)

Legend:
CDK8/cyclin C = molecular target: T1, CDK8/cyclin C (Homo sapiens, UniProt P49336); assay: Enzyme assay for inhibition of CDK protein in vitro (Z-LYTE); format: biochemical
T1 construct: purchased Invitrogen, USA
Protocol: (§1) Compounds 1 and 14 diluted in DMSO were mixed with detected CDK protein (Invitrogen, USA) respectively, incubated at room temperature for 30 minutes; and then mixed with Kinase/Z-LYTE™ Peptide Substrate Mixture (Invitrogen, USA) and 4×ATP. The mixed system was transferred to a 384-well white opaque plate to react for 1 hour at room temperature; 5 μL of Development Solution (Invitrogen, USA) was added to react at room temperature for 1 hour, and finally Stop Reagent (Invitrogen, USA) was added to terminate the reaction and MD SpectraMax I3× microplate reader (Molecular Devices, USA) was used to read fluorescence values.

CDK3/cyclin E1 = molecular target: T2, CDK3/cyclin E1 (Homo sapiens, UniProt Q00526); assay: as above; format: biochemical
T2 construct: purchased Invitrogen, USA
Protocol: as §1

CDK11(non-active) = molecular target: T3, CDK11(non-active) (Homo sapiens, UniProt Q9BWU1); assay: as above; format: biochemical
T3 construct: purchased Invitrogen, USA
Protocol: as §1

CDK9/cyclin T1 = molecular target: T4, CDK9/cyclin T1 (Homo sapiens, UniProt P50750); assay: as above; format: biochemical
T4 construct: purchased Invitrogen, USA
Protocol: as §1

hamster ovary cell CHO = assay: Cancer cell growth, Cell Titer-Glo cell viability assay, 72 hours; format: cell-based
Text: (§2) In the examples, we used acute myelocytic leukemia (AML) OCI-AML-3, acute promyelocytic leukemia cell line NB-4, MDS-RAEB (myelodysplastic syndrome-excess blasts type) cell line SKM-1, human leukemia cell Nomo-1, acute myeloid leukemia cell line MOLM14, acute myeloid leukemia cell line MOLM13, acute myeloid leukemia cell line MV4-11, acute myeloid leukemia cell line HL-60, acute myeloid leukemia cell line OCI-AML-2, histiocytic lymphoma U-937, acute B cell leukemia cell line MEC-1, acute B cell leukemia cell line MEC-2, acute megakaryoblastic leukemia CMK, hamster lung cell CHL, hamster ovary cell CHO, human non-small cell lung cancer cell H1975, human non-small cell lung cancer cell H358, human small cell lung cancer cell H209, human lung adenocarcinoma cell H1395, human non-small cell lung cancer cell PC-9, human lung cancer cell H3122, human non-small cell lung cancer cell H2122, human non-small cell lung cancer cell H1915, human lung adenocarcinoma cell H1355, human non-small cell lung cancer cell HCC827, human breast cancer cell MDA-MB-231, human breast cancer cell MDA-MB-468, human breast cancer cell MCF-7, human breast cancer cell T47D, human breast cancer cell SK-Br-3, the above cells were purchased from ATCC.
(§3) Cell Titer-Glo® (Promega, USA) chemical self-luminescence cell viability assay kit was used to detect the number of viable cells by quantitatively measuring ATP in living cells, according to which to calculate GI50 and IC50.

[1] = tested on: acute megakaryoblastic leukemia CMK; assay: as above; format: cell-based
Text: as §2, §3

[2] = tested on: acute promyelocytic leukemia cell line NB-4; assay: as above; format: cell-based; conditions: NB4, 72 hours
Text: as §2, §3

[3] = tested on: acute myeloid leukemia cell line MOLM13; assay: as above; format: cell-based; conditions: Homo sapiens; MOLM-13, 72 hours
Text: as §2, §3

[4] = tested on: acute myelocytic leukemia (AML) OCI-AML-3; assay: as above; format: cell-based; conditions: Homo sapiens, OCI-AML-3; OCI-AML3, 72 hours
Text: as §2, §3

[5] = tested on: acute myeloid leukemia cell line MV4-11; assay: as above; format: cell-based; conditions: Homo sapiens; MV4-11, 72 hours
Text: as §2, §3

[6] = tested on: histiocytic lymphoma U-937; assay: as above; format: cell-based; conditions: Homo sapiens; U-937, 72 hours
Text: as §2, §3

[7] = tested on: human leukemia cell Nomo-1; assay: as above; format: cell-based; conditions: Homo sapiens; Nomo-1, 72 hours
Text: as §2, §3

[8] = tested on: acute myeloid leukemia cell line HL-60; assay: as above; format: cell-based; conditions: Homo sapiens; HL-60, 72 hours
Text: as §2, §3

[9] = tested on: acute B cell leukemia cell line MEC-2; assay: as above; format: cell-based; conditions: MEC2; MEC-2, 72 hours
Text: as §2, §3

[10] = tested on: acute myeloid leukemia cell line MOLM14; assay: as above; format: cell-based; conditions: Homo sapiens; MOLM-14, 72 hours
Text: as §2, §3

[11] = tested on: MDS-RAEB (myelodysplastic syndrome-excess blasts type) cell line SKM-1; assay: as above; format: cell-based; conditions: Homo sapiens; SKM-1, 72 hours
Text: as §2, §3

[12] = tested on: acute B cell leukemia cell line MEC-1; assay: as above; format: cell-based; conditions: Homo sapiens, MEC1; MEC-1, 72 hours
Text: as §2, §3

hamster lung cell CHL = assay: as above; format: cell-based
Text: as §2, §3

[13] = tested on: acute myeloid leukemia cell line OCI-AML-2; assay: as above; format: cell-based; conditions: Homo sapiens; OCI-AML2, 72 hours
Text: as §2, §3

T4 sequence (P50750 whole entry): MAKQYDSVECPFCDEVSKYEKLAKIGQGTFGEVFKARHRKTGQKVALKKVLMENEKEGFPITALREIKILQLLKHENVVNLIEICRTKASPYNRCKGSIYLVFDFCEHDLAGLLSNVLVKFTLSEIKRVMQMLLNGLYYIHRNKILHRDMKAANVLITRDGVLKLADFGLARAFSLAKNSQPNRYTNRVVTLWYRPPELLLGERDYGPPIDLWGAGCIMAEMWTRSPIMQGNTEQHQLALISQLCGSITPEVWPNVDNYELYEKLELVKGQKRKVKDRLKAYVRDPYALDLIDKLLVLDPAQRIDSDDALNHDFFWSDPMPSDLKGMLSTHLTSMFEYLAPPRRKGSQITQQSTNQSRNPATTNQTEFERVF
T4 sequence (O60563 whole entry partner): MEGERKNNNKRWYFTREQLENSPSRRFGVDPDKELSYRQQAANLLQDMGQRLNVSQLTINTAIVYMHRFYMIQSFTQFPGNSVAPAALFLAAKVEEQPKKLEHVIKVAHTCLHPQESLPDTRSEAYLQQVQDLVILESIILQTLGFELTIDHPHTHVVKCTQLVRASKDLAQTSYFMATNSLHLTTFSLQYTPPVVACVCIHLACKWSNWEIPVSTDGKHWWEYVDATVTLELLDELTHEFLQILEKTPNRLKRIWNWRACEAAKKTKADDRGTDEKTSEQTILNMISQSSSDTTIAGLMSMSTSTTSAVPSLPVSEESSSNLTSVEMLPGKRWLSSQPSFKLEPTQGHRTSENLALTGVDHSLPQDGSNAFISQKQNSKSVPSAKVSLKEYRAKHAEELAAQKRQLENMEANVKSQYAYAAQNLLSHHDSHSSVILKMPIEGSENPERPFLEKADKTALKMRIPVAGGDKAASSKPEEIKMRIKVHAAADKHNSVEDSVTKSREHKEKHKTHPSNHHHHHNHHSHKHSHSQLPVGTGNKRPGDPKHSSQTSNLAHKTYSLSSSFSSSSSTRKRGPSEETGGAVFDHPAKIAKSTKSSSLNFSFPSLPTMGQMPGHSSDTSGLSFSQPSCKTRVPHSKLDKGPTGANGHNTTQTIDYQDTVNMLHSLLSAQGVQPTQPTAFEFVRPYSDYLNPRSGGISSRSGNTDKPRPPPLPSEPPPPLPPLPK
T3 sequence (Q9BWU1 whole entry): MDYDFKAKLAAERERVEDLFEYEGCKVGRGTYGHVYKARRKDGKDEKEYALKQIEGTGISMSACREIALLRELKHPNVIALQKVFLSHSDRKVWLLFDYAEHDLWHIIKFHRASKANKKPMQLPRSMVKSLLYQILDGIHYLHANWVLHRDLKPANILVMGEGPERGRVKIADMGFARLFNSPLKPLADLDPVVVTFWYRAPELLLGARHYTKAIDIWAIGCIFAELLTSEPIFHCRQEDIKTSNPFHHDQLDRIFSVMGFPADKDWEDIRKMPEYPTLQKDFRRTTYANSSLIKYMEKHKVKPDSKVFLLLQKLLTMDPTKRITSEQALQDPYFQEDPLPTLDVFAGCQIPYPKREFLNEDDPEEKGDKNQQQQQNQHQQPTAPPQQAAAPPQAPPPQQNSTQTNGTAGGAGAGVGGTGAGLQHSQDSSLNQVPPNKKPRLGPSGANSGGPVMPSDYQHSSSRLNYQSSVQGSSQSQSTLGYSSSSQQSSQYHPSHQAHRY
T2 sequence (Q00526 whole entry): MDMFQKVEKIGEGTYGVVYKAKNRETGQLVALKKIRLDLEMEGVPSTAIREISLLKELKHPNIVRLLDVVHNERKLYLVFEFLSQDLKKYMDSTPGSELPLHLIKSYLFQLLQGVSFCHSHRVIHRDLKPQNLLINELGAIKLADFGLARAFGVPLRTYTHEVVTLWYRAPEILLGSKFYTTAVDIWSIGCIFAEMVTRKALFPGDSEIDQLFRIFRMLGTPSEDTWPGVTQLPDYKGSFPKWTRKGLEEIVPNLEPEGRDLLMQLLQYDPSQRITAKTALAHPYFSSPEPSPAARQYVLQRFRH
T2 sequence (P24864 whole entry partner): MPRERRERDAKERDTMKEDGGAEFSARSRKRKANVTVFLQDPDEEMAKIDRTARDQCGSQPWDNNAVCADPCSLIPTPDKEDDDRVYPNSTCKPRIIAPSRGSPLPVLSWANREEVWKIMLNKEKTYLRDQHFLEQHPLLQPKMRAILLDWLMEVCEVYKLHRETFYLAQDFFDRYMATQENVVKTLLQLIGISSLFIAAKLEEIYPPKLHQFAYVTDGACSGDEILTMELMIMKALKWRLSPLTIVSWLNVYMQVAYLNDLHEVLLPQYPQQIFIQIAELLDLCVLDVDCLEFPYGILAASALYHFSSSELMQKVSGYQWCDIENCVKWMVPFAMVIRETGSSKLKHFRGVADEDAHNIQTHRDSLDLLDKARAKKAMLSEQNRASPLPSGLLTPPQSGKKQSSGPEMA
T1 sequence (P49336 whole entry): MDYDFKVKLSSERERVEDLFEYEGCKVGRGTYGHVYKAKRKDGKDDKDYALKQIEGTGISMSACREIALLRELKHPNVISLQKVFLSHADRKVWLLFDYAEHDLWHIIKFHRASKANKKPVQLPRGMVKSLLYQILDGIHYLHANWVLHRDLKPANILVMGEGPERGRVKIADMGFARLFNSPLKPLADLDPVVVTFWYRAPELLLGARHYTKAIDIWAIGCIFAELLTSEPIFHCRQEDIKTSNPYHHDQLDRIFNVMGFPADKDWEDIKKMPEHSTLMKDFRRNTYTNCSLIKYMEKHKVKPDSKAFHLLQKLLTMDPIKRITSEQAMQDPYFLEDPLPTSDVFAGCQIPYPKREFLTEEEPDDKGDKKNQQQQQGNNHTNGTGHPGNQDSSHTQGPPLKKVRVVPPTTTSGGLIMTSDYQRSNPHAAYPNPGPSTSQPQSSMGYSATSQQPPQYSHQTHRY
T1 sequence (P24863 whole entry partner): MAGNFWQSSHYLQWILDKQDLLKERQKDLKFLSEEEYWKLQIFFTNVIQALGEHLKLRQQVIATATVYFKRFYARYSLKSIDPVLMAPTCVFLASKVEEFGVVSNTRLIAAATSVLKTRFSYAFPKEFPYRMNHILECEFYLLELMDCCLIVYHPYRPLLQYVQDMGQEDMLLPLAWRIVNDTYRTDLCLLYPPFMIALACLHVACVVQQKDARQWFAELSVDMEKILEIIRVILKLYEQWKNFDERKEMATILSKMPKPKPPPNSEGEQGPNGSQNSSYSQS

## COCCN[C@H]1CC[C@H](Nc2cc(-c3csc(NCC4(C#N)CCOCC4)n3)c(Cl)cn2)CC1 [Compound 14, 4-((4-(5-chloro-2-(((1r,4r)-4-((2-methoxyethyl)amino)cyclohexyl)amino)pyridin-4-yl)thiazol-2-ylamino)methyl)tetrahydro-2H-pyran-4-carbonitrile]
CDK8/cyclin C
  IC50: > 10000 nM
CDK3/cyclin E1
  IC50: > 10000 nM
CDK11(non-active)
  IC50: > 10000 nM
CDK9/cyclin T1
  IC50: 1.27 nM
Hamster ovary cell CHO; CHO cells
  inhibitory effect on normal cell CHO (in words): no inhibitory effect
Hamster ovary cell CHO; CHO, 72 hours
  GI50: 1100 nM
[1]
  GI50: 36 nM
[2]
  GI50: 7.9 nM
[3]
  GI50: 12 nM
[4]
  GI50: 12 nM
[5]
  GI50: 41 nM
[6]
  GI50: 11 nM
[7]
  GI50: 110 nM
[8]
  GI50: 56 nM
[9]
  GI50: 23 nM
[10]
  GI50: 1.1 nM
[11]
  GI50: 2 nM
[12]
  GI50: 37 nM
Hamster lung cell CHL; CHL cells
  inhibitory effect on normal cell CHL (in words): no inhibitory effect
Hamster lung cell CHL; CHL, 72 hours
  GI50: 1200 nM
[13]
  GI50: 6.6 nM
